# In paper PMC7206119, “RIP1 inhibition blocks inflammatory diseases but not tumor growth or metastases” (Cell Death and Differentiation, 2019):
# Experiments:
# Test in all cases: biochemical
# Parameters in all cases: DiscoverX kinase panel, active-site competition binding (KINOMEscan type), percent of control at one concentration
# Conditions in all cases: competition binding, percent of control
# [1] = biological target: MARK3 (Homo sapiens, UniProt P27448)
# [2] = biological target: BMX (Homo sapiens, UniProt P51813)
# [3] = biological target: CASK (Homo sapiens, UniProt O14936)
# [4] = biological target: ACVR2A (Homo sapiens, UniProt P27037)
# [5] = biological target: TNIK (Homo sapiens, UniProt Q9UKE5)
# [6] = biological target: EGFR(S752-I759del) (Homo sapiens, UniProt P00533, DEL752-759)
# [7] = biological target: T1, IKK-epsilon (Homo sapiens, UniProt Q14164)
# T1 construct: gene IKBKE
# [8] = biological target: T2, RSK3(Kin.Dom.2-C-terminal) (Homo sapiens, UniProt Q15349)
# T2 construct: gene RPS6KA2; Kin.Dom.2-C-terminal
# [9] = biological target: CDKL1 (Homo sapiens, UniProt Q00532)
# [10] = biological target: PIM1 (Homo sapiens, UniProt P11309)
# [11] = biological target: MAP3K3 (Homo sapiens, UniProt Q99759)
# [12] = biological target: KIT-autoinhibited (Homo sapiens, UniProt P10721)
# [13] = biological target: CDK3 (Homo sapiens, UniProt Q00526)
# [14] = biological target: AKT3 (Homo sapiens, UniProt Q9Y243)
# [15] = biological target: LRRK2 (Homo sapiens, UniProt Q5S007)
# [16] = biological target: PIK3CG (Homo sapiens, UniProt P48736)
# [17] = biological target: INSR (Homo sapiens, UniProt P06213)
# [18] = biological target: T3, MST3 (Homo sapiens, UniProt Q9Y6E0)
# T3 construct: gene STK24
# [19] = biological target: T4, RIPK5 (Homo sapiens, UniProt Q6XUX3)
# T4 construct: gene DSTYK
# [20] = biological target: T5, RPS6KA5(Kin.Dom.1-N-terminal) (Homo sapiens, UniProt O75582)
# T5 construct: Kin.Dom.1-N-terminal
# [21] = biological target: TBK1 (Homo sapiens, UniProt Q9UHD2)
# Chain of TNIK (Q9UKE5 whole entry): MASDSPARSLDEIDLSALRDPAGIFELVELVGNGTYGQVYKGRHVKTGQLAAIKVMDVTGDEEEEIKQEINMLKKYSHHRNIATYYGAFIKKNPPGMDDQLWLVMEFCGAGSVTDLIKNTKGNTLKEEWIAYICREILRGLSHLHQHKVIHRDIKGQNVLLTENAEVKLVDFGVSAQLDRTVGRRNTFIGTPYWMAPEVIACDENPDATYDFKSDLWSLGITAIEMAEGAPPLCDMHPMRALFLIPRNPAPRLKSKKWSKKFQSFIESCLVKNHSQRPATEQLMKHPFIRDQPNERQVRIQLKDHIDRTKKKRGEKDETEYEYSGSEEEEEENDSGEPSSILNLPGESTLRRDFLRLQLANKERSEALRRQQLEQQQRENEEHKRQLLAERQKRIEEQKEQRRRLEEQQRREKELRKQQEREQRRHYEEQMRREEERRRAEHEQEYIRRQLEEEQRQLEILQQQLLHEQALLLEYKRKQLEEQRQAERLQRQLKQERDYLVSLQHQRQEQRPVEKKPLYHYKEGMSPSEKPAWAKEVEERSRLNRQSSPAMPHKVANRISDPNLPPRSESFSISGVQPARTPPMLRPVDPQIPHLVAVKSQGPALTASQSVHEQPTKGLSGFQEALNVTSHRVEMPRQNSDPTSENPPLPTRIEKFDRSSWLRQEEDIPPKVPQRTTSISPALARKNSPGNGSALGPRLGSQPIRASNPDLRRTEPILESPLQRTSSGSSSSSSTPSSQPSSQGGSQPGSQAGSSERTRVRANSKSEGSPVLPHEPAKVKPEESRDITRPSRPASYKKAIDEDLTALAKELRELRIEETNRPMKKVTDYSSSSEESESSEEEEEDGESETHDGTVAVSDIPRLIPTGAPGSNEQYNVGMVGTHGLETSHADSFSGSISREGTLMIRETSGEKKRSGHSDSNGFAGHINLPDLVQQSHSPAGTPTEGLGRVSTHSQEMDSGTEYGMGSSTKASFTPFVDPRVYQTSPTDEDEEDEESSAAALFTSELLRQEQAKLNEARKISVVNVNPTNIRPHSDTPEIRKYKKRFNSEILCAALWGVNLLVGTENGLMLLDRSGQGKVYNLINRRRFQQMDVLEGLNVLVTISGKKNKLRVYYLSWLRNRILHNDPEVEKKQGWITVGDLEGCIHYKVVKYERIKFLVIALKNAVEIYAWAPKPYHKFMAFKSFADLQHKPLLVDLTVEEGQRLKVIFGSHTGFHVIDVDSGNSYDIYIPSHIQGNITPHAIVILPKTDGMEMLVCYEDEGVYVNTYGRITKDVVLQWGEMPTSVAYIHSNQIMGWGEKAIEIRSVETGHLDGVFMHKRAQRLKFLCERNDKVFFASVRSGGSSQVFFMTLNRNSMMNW
# Chain of LRRK2 (Q5S007 whole entry): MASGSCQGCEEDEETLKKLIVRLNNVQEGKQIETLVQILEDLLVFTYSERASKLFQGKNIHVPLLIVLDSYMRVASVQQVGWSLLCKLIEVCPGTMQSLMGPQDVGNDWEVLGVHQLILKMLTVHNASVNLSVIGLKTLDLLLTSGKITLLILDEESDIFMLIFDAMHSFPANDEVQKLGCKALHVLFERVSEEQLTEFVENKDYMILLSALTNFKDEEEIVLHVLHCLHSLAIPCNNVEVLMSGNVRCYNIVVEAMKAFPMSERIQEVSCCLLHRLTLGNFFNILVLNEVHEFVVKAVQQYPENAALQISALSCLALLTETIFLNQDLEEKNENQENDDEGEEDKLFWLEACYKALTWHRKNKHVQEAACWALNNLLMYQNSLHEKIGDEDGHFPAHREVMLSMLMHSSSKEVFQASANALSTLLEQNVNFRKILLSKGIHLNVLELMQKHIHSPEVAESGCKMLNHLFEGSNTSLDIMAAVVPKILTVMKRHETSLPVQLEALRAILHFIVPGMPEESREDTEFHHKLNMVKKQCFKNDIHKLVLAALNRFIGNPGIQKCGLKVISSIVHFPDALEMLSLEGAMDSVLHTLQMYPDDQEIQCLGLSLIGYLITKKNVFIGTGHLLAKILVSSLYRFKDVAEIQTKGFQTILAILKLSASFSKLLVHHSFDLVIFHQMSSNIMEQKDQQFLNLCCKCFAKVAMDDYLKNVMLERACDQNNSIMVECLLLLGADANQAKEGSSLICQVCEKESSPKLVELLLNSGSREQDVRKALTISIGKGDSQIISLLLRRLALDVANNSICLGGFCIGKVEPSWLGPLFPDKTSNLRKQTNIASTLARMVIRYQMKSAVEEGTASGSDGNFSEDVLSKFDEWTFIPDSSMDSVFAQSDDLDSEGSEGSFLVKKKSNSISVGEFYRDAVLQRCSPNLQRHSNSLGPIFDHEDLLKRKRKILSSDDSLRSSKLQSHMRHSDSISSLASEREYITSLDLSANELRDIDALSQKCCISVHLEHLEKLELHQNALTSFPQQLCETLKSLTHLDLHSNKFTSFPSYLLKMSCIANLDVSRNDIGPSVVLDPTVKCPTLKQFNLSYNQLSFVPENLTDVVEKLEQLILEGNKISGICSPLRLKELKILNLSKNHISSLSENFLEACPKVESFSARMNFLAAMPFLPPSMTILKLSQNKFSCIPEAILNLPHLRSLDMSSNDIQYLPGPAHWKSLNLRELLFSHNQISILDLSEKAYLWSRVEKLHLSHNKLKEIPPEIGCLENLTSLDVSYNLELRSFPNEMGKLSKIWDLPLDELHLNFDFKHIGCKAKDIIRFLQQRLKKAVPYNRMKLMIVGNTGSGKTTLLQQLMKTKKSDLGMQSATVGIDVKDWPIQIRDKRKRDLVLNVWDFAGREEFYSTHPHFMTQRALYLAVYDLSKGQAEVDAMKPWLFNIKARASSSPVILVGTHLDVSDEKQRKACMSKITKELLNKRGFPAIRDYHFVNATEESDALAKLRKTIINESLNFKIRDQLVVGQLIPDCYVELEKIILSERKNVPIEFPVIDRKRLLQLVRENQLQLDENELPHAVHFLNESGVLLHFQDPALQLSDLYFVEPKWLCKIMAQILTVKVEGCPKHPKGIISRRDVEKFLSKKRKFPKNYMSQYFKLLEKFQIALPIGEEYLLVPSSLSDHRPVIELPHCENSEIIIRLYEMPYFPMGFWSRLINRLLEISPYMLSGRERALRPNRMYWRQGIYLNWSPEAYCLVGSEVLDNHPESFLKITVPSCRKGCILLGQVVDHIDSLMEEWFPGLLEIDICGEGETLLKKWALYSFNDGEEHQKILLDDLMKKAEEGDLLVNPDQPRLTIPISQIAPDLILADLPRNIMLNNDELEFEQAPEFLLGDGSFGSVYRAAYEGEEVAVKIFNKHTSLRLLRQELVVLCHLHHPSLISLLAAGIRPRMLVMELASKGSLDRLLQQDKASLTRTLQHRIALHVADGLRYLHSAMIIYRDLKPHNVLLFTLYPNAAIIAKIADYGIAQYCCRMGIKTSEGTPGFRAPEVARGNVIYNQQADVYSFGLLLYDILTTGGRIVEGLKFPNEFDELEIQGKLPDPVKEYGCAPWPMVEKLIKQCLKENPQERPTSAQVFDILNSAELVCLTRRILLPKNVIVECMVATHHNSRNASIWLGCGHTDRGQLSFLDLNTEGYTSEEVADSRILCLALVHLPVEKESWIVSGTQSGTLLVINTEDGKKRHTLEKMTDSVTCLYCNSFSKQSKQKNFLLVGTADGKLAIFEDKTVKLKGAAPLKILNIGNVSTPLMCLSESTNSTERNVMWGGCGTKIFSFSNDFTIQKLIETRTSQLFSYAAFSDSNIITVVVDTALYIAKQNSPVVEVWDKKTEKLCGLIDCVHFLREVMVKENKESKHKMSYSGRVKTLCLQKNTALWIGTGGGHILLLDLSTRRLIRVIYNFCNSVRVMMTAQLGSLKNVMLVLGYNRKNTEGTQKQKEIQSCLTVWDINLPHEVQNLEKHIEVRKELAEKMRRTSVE
# T4 sequence (Q6XUX3 whole entry): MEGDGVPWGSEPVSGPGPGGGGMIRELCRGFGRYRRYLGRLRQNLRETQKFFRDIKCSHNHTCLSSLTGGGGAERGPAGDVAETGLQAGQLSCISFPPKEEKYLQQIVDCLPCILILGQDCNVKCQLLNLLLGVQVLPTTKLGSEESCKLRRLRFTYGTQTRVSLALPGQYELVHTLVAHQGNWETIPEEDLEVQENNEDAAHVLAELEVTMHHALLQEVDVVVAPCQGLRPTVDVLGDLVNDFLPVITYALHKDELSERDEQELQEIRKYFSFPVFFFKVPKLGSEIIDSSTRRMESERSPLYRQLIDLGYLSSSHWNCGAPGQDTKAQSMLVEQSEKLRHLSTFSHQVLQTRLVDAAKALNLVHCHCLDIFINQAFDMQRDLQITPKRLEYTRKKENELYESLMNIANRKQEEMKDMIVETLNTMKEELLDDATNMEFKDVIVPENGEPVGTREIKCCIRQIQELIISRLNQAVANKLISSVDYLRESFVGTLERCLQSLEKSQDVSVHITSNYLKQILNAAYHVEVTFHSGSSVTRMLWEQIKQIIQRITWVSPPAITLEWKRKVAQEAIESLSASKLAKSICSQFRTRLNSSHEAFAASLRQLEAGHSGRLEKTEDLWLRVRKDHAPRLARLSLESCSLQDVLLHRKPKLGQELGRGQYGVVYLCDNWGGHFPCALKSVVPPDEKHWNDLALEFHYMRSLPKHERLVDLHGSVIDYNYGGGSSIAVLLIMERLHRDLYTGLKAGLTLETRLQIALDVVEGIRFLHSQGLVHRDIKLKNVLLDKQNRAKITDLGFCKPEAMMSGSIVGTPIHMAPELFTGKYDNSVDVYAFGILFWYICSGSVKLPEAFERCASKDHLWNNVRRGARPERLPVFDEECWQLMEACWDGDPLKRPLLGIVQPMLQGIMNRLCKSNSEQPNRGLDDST
# Chain of CDK3 (Q00526 whole entry): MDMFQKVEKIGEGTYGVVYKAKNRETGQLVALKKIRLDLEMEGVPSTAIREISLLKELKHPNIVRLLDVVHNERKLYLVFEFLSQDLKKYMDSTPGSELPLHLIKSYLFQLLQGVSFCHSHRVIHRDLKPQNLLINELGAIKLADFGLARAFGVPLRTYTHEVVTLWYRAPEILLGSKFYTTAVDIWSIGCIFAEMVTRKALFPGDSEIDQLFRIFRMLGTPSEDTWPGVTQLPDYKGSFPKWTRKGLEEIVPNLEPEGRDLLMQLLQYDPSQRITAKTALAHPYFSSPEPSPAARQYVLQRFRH
smiles,measurement,setting,value
"COc1cc2c(cn1)N(C)C(=O)[C@@H](NC(=O)c1nc3n(n1)[C@H](c1ccccc1)CC3)CC2 [GNE684, (S)-N-((S)-7-methoxy-1-methyl-2-oxo-2,3,4,5-tetrahydro-1H-pyrido[3,4-b]azepin-3-yl)-5-phenyl-6,7-dihydro-5H-pyrrolo[1,2-b][1,2,4]triazole-2-carboxamide]",remaining binding at 10 µM,[1],100%
same,remaining binding at 10 µM,[2],94%
same,remaining binding at 10 µM,[3],72%
same,remaining binding at 10 µM,[4],82%
same,remaining binding at 10 µM,[5],67%
same,remaining binding at 10 µM,[6],97%
same,remaining binding at 10 µM,[7],88%
same,remaining binding at 10 µM,[8],98%
same,remaining binding at 10 µM,[9],74%
same,remaining binding at 10 µM,[10],100%
same,remaining binding at 10 µM,[11],98%
same,remaining binding at 10 µM,[12],93%
same,remaining binding at 10 µM,[13],74%
same,remaining binding at 10 µM,[14],75%
same,remaining binding at 10 µM,[15],91%
same,remaining binding at 10 µM,[16],89%
same,remaining binding at 10 µM,[17],90%
same,remaining binding at 10 µM,[18],99%
same,remaining binding at 10 µM,[19],48%
same,remaining binding at 10 µM,[20],84%
same,remaining binding at 10 µM,[21],94%
